Results from patent US20250228239A1, “MOLECULES HAVING PESTICIDAL UTILITY, AND INTERMEDIATES, COMPOSITIONS, AND PROCESSES, RELATED THERETO” (priority 2024, published 2025).

Key:
Assay type in all cases: in vivo
[1] = system: Beet Armyworm (Spodoptera exigua, LAPHEG); test: Bioassays on Beet Armyworm (BAW), 128-well diet tray assay; details: Spodoptera exigua; Beet Armyworm; rating class; read-out: BAW
How it was run: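 Larvae at second instar are exposed on dried, compound-treated diet (50 μg/cm^2, delivered in 90:10 acetone-water) in eight replicate wells. After five to seven days at 25° C., 14:10 light-dark, percent mortality in each well is scored and the eight wells averaged.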

[2] = system: Yellow Fever Mosquito (Aedes aegypti, AEDSAE); details: Yellow Fever Mosquito; rating class
How it was run: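 Compounds from DMSO master plates (4000 ppm stock) diluted in 90:10 water/acetone, then dispensed into six replicate plates and infested with ~1-day-old Aedes aegypti larvae in liver-powder water. Held covered at room temperature for 3 days; each well scored for larval mortality and graded on a rating scale.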

[3] = system: Cabbage Looper (Trichoplusia ni, TRIPNI); test: Bioassays on Cabbage Looper (CL), 128-well diet tray assay; details: Trichoplusia ni; Cabbage Looper; rating class; read-out: CL
How it was run: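 Percent mortality, averaged across eight replicate wells, after second-instar larvae (1–5 per well) fed for five to seven days on diet dosed at 50 μg/cm^2. Compound was applied in acetone-water 90:10 and dried; trays kept vented at 25° C under 14:10 photoperiod.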

Compound	pest or weed control at 50 µg/cm2 [1]	YFM [2]	pest or weed control at 50 µg/cm2 [3]
CO[C@H](C)C(=O)Nc1c(F)ccc(NC(=O)c2cc(NC(=O)[C@H]3[C@H](c4ccc(F)c(C(F)(F)F)c4)C3(Cl)Cl)ccc2Cl)c1F [F1689, 2-Chloro-5-((1R,3R)-2,2-dichloro-3-(4-fluoro-3-(trifluoromethyl)phenyl)cyclopropane-1-carboxamido)-N-(2,4-difluoro-3-((R)-2-methoxypropanamido)phenyl)benzamide]	50 to 100%	B (More than 0 – Less than 80)	50 to 100%
Cc1c(NC(=O)c2cc(NC(=O)[C@H]3[C@H](c4ccc(F)c(C(F)(F)F)c4)C3(Cl)Cl)ccc2Cl)ccc(Br)c1N [F1690, N-(3-Amino-4-bromo-2-methylphenyl)-2-chloro-5-((1R,3R)-2,2-dichloro-3-(4-fluoro-3-(trifluoromethyl)phenyl)cyclopropane-1-carboxamido)benzamide]	50 to 100%	A (80–100)	50 to 100%
O=C(Nc1ccc(F)c(NC(=O)[C@H]2CCCO2)c1F)c1cc(NC(=O)[C@H]2[C@H](c3ccc(F)c(C(F)(F)F)c3)C2(Cl)Cl)ccc1Cl [F1691, (R)—N-(3-(2-Chloro-5-((1R,3R)-2,2-dichloro-3-(4-fluoro-3-(trifluoromethyl)phenyl)cyclopropane-1-carboxamido)benzamido)-2,6-difluorophenyl)tetrahydrofuran-2-carboxamide]	50 to 100%	B (More than 0 – Less than 80)	50 to 100%
O=C(Nc1ccc(F)c(NC(=O)[C@@H]2CCCO2)c1F)c1cc(NC(=O)[C@H]2[C@H](c3ccc(F)c(C(F)(F)F)c3)C2(Cl)Cl)ccc1Cl [F1692, (S)—N-(3-(2-Chloro-5-((1R,3R)-2,2-dichloro-3-(4-fluoro-3-(trifluoromethyl)phenyl)cyclopropane-1-carboxamido)benzamido)-2,6-difluorophenyl)tetrahydrofuran-2-carboxamide]	50 to 100%	B (More than 0 – Less than 80)	50 to 100%
O=C(Nc1ccc(F)c(NC(=O)C2CCCO2)c1F)c1cc(NC(=O)[C@H]2[C@H](c3cc(F)cc(C(F)(F)F)c3)C2(Cl)Cl)ccc1Cl (stereo partly drawn) [F1706, N-(3-(2-Chloro-5-((1R,3R)-2,2-dichloro-3-(3-fluoro-5-(trifluoromethyl)phenyl)cyclopropane-1-carboxamido)benzamido)-2,6-difluorophenyl)tetrahydrofuran-2-carboxamide]	50 to 100%	A (80–100)	50 to 100%
O=C(Nc1ccc(F)c(NC(=O)C(F)(F)C(F)F)c1F)c1cc(NC(=O)[C@H]2[C@H](c3cc(F)cc(C(F)(F)F)c3)C2(Cl)Cl)ccc1Cl [F1707, 2-Chloro-5-((1R,3R)-2,2-dichloro-3-(3-fluoro-5-(trifluoromethyl)phenyl)cyclopropane-1-carboxamido)-N-(2,4-difluoro-3-(2,2,3,3-tetrafluoropropanamido)phenyl)benzamide]	50 to 100%	A (80–100)	50 to 100%
CCC(=O)Nc1c(F)ccc(NC(=O)c2cc(NC(=O)[C@H]3[C@H](c4cc(F)cc(C(F)(F)F)c4)C3(Cl)Cl)ccc2Cl)c1F [F1709, 2-Chloro-5-((1R,3R)-2,2-dichloro-3-(3-fluoro-5-(trifluoromethyl)phenyl)cyclopropane-1-carboxamido)-N-(2,4-difluoro-3-propionamidophenyl)benzamide]	50 to 100%	A (80–100)	50 to 100%
COC(C)C(=O)Nc1c(F)ccc(NC(=O)c2cc(NC(=O)[C@H]3[C@H](c4ccc(F)c(C(F)(F)F)c4)C3(Cl)Cl)ccc2Cl)c1F (stereo partly drawn) [F1712, 2-Chloro-5-((1R,3R)-2,2-dichloro-3-(4-fluoro-3-(trifluoromethyl)phenyl)cyclopropane-1-carboxamido)-N-(2,4-difluoro-3-(2-methoxypropanamido)phenyl)benzamide]	50 to 100%	A (80–100)	50 to 100%
O=C(Nc1ccc(F)c(NC(=O)C(F)(F)Cl)c1F)c1cc(NC(=O)[C@H]2[C@H](c3ccc(Cl)c(C(F)(F)F)c3)C2(Cl)Cl)ccc1Cl [F1719, 2-Chloro-N-(3-(2-chloro-2,2-difluoroacetamido)-2,4-difluorophenyl)-5-((1R,3R)-2,2-dichloro-3-(4-chloro-3-(trifluoromethyl)phenyl)cyclopropane-1-carboxamido)benzamide]	50 to 100%	A (80–100)	50 to 100%
CO[C@@H](C)C(=O)Nc1c(F)ccc(NC(=O)c2cc(NC(=O)[C@H]3[C@H](c4ccc(F)c(C(F)(F)F)c4)C3(Cl)Cl)ccc2Cl)c1F [F1720, 2-Chloro-5-((1R,3R)-2,2-dichloro-3-(4-fluoro-3-(trifluoromethyl)phenyl)cyclopropane-1-carboxamido)-N-(2,4-difluoro-3-((S)-2-methoxypropanamido)phenyl)benzamide]	50 to 100%	A (80–100)	50 to 100%
O=C(Nc1ccccc1)c1cc(NC(=O)[C@H]2[C@H](c3ccc(F)c(C(F)(F)F)c3)C2(Cl)Cl)c(F)cc1Cl [F1723, 2-Chloro-5-((1R,3R)-2,2-dichloro-3-(4-fluoro-3-(trifluoromethyl)phenyl)cyclopropane-1-carboxamido)-4-fluoro-N-phenylbenzamide]	50 to 100%	A (80–100)	50 to 100%
O=C(Nc1ccc(F)cc1)c1cc(NC(=O)[C@H]2[C@H](c3ccc(F)c(C(F)(F)F)c3)C2(Cl)Cl)c(F)cc1Cl [F1725, 2-Chloro-5-((1R,3R)-2,2-dichloro-3-(4-fluoro-3-(trifluoromethyl)phenyl)cyclopropane-1-carboxamido)-4-fluoro-N-(4-fluorophenyl)benzamide]	50 to 100%	A (80–100)	50 to 100%
O=C(Nc1ccc(F)cc1F)c1cc(NC(=O)[C@H]2[C@H](c3ccc(F)c(C(F)(F)F)c3)C2(Cl)Cl)c(F)cc1Cl [F1727, 2-Chloro-5-((1R,3R)-2,2-dichloro-3-(4-fluoro-3-(trifluoromethyl)phenyl)cyclopropane-1-carboxamido)-N-(2,4-difluorophenyl)-4-fluorobenzamide]	50 to 100%	A (80–100)	50 to 100%
O=C(Nc1ccc(F)c(NC(=O)C(Cl)CCl)c1F)c1cc(NC(=O)[C@H]2[C@H](c3ccc(F)c(C(F)(F)F)c3)C2(Cl)Cl)ccc1Cl (stereo partly drawn) [F1728, 2-Chloro-5-((1R,3R)-2,2-dichloro-3-(4-fluoro-3-(trifluoromethyl)phenyl)cyclopropane-1-carboxamido)-N-(3-(2,3-dichloropropanamido)-2,4-difluorophenyl)benzamide]	50 to 100%	B (More than 0 – Less than 80)	50 to 100%
O=C(Nc1ccc(F)c(NC(=O)C(F)F)c1F)c1cc(NC(=O)[C@H]2[C@H](c3ccc(F)c(C(F)(F)F)c3)C2(Cl)Cl)c(F)cc1Cl [F1729, 2-Chloro-5-((1R,3R)-2,2-dichloro-3-(4-fluoro-3-(trifluoromethyl)phenyl)cyclopropane-1-carboxamido)-N-(3-(2,2-difluoroacetamido)-2,4-difluorophenyl)-4-fluorobenzamide]	50 to 100%	A (80–100)	50 to 100%
O=C(CCF)Nc1c(F)ccc(NC(=O)c2cc(NC(=O)[C@H]3[C@H](c4ccc(F)c(C(F)(F)F)c4)C3(Cl)Cl)ccc2Cl)c1F [F1735, 2-Chloro-5-((1R,3R)-2,2-dichloro-3-(4-fluoro-3-(trifluoromethyl)phenyl)cyclopropane-1-carboxamido)-N-(2,4-difluoro-3-(3-fluoropropanamido)phenyl)benzamide]	50 to 100%	A (80–100)	50 to 100%
O=C(CC(F)(F)F)Nc1c(F)ccc(NC(=O)c2cc(NC(=O)[C@H]3[C@H](c4cccc(C(F)(F)F)c4)C3(Cl)Cl)ccc2Cl)c1F [F1738, 2-Chloro-5-((1R,3R)-2,2-dichloro-3-(3-(trifluoromethyl)phenyl)cyclopropane-1-carboxamido)-N-(2,4-difluoro-3-(3,3,3-trifluoropropanamido)phenyl)benzamide]	50 to 100%	A (80–100)	50 to 100%
CC(=O)Nc1cc(NC(=O)c2cc(NC(=O)[C@H]3[C@H](c4ccc(F)c(C(F)(F)F)c4)C3(Cl)Cl)ccc2Cl)c(F)c(F)c1F [F1743, N-(5-Acetamido-2,3,4-trifluorophenyl)-2-chloro-5-((1R,3R)-2,2-dichloro-3-(4-fluoro-3-(trifluoromethyl)phenyl)cyclopropane-1-carboxamido)benzamide]	50 to 100%	A (80–100)	50 to 100%
O=C(Nc1cc(NC(=O)C(F)F)c(F)c(F)c1F)c1cc(NC(=O)[C@H]2[C@H](c3ccc(F)c(C(F)(F)F)c3)C2(Cl)Cl)ccc1Cl [F1744, 2-Chloro-5-((1R,3R)-2,2-dichloro-3-(4-fluoro-3-(trifluoromethyl)phenyl)cyclopropane-1-carboxamido)-N-(5-(2,2-difluoroacetamido)-2,3,4-trifluorophenyl)benzamide]	50 to 100%	A (80–100)	50 to 100%
